Assay results as given in patent US12325677B2, “Carboxylic acid-type lipid, and lipid particle and lipid membrane each comprising carboxylic acid-type lipid” (Toray Industries, Inc., priority 2018, dated 2025).

Tests used:
[1] = Thickness of lipid membrane from SEM observation image; assay type: physicochemical; conditions: lipid supported on fiber sheet base (hemostatic materials E1 to E4), SEM ×5,000
Method: The thickness of the lipid membrane is preferably 10 to 1,000 nm, more preferably 30 to 500 nm, and still more preferably 60 to 240 nm. The method of measuring the lipid membrane is as follows. The lipid membrane is observed with a scanning electron microscope (SEM). The thickness of five points optionally selected in the SEM observation image is measured, and the mean is regarded as the thickness of the lipid membrane.
An SEM observation image (×1,000) of the base complex before supporting a lipid is shown in FIG. 5, and SEM observation images (×1,000) of the hemostatic materials E1 to E4 are shown in FIGS. 6 to 9, respectively.

[2] = test system: guinea pig-derived PRP; experiment: Evaluation of platelet aggregation capacity of hemostatic material (in vitro), protein assay of attached platelets; assay type: cell-based; conditions: lipid supported on the base part in place of DHSG, Asp-DHSG, Glu-DHSG and AG-DHSG
Method: From the hemostatic materials D1, D2, D3 and D4, a base part (fiber sheet part) supporting DHSG, Asp-DHSG, Glu-DHSG and AG-DHSG, respectively, was taken out. To a 12-well plate, the base part (fiber sheet part) that was taken out and 1 mL of guinea pig-derived PRP (2.0×10^5/μL) prepared by the abovementioned method were added. Thereafter, ADP ([…], 100 μL) that activates platelets was added, and after allowing to stand at room temperature for 5 minutes, the mixture was washed with 1 mL of DPBS twice. Thereafter, to dissolve platelets attached to the base part (fiber sheet part), 500 μL of 0.5% Triton X was added, followed by allowing to stand at room temperature for 1 hour to obtain a platelet lysate. To a 96-well plate, […] of the platelet lysate prepared by the abovementioned method and 150 μL of PIERCE (trademark) 660 nm Protein Assay Kit were added, followed by allowing to stand for 5 minutes. By measuring absorbance at 660 nm using a microplate reader, proteins were quantitatively determined, and the determination results were used as an index of the count of platelets which were not washed away and were attached to the fiber sheet. The results in FIG. 4 are relative values when the platelet count in using the hemostatic material D1 is regarded as 1. […]

SMILES	Thickness of the lipid membrane [1] [nm]	Platelets detected on the base part (fiber sheet part) as a result of washing [2]
CCCCCCCCCCCCCCCCOC(=O)CCC(NC(=O)CCC(=O)NC(CCC(=O)NC(CC(=O)O)C(=O)O)C(=O)NC(CC(=O)O)C(=O)O)C(=O)OCCCCCCCCCCCCCCCC (centres unmarked) [AG-DHSG]	124	
CCCCCCCCCCCCCCCCOC(=O)CCC(NC(=O)CCC(=O)NC(CC(=O)O)C(=O)O)C(=O)OCCCCCCCCCCCCCCCC (centres unmarked) [Asp-DHSG]	153	
CCCCCCCCCCCCCCCCOC(=O)CCC(NC(=O)CCC(=O)O)C(=O)OCCCCCCCCCCCCCCCC [DHSG, 1,5-Dihexadecyl-N-Succinyl-L-Glutamate, reference compound]	131	
CCCCCCCCCCCCCCCC(=O)OC[C@H](COP(=O)([O-])OCC[N+](C)(C)C)OC(=O)CCCCCCCCCCCCCCC [DPPC, 1,2-dipalmitoyl-sn-glycero-3-phosphatidylcholine]		no platelets were detected
CCCCCCCCCCCCCCCCOC(=O)CCC(NC(=O)CCC(=O)NC(CCC(=O)O)C(=O)O)C(=O)OCCCCCCCCCCCCCCCC (centres unmarked) [Glu-DHSG]	187	
